{"source": "patent US20020137929A1", "about": "“1 - (3-heterocyclylphenyl) isothiourea, -isourea, -guanidine and -amidine herbicidal agents” (Intellectual Property Department, BASF Aktiengesellschaft, priority 1998, published 2002)", "key": {"AMBEL (Ragweed, Common)": {"test_system": "AMBEL (Ragweed, Common)", "test": "Postemergence herbicidal evaluation", "assay_type": "in vivo, Ambrosia artemisifolia", "details": "postemergence", "summary_of_the_method": "(§1)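 Young plants, roughly two weeks from seeding, receive the active ingredient as a sprayed dispersion (acetone/water 50/50, 0.5% TWEEN 20) at 40 psi. Doses span about 0.0156 to 0.500 kg/ha. A visual score from 0 to 9 compares treated with control plants four to five weeks on.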"}, "CASOB (Sicklepod)": {"test_system": "CASOB (Sicklepod)", "test": "Postemergence herbicidal evaluation", "assay_type": "in vivo, Cassia obtusifolia", "details": "postemergence", "summary_of_the_method": "as §1"}, "GALAP (Galium) [1]": {"test_system": "GALAP (Galium)", "test": "Postemergence herbicidal evaluation", "assay_type": "in vivo, Galium aparine", "details": "postemergence", "summary_of_the_method": "as §1"}, "[2]": {"test_system": "GLXMAW (Soybean, Williams)", "test": "Postemergence herbicidal evaluation", "assay_type": "in vivo, Glycine max, (L.) Merr. cv Williams", "details": "postemergence", "summary_of_the_method": "as §1"}, "[3]": {"test_system": "TRZAWR (Wheat, Winter, cv Riband)", "test": "Postemergence herbicidal evaluation", "assay_type": "in vivo, Triticum aestivum", "details": "postemergence", "summary_of_the_method": "as §1"}, "GALAP (Galium) [4]": {"test_system": "GALAP (Galium)", "test": "Preemergence herbicidal evaluation", "assay_type": "in vivo, Galium aparine", "details": "rated 4-5 weeks after treatment", "summary_of_the_method": "(§2)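 Herbicidal effect scored visually, 0-9, at 4 to 5 weeks against a control; compound applied preemergence by aqueous acetone spray to seeded soil at about 0.0156 to 0.500 kg/ha.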"}, "SETVI (Foxtail, Green)": {"test_system": "SETVI (Foxtail, Green)", "test": "Preemergence herbicidal evaluation", "assay_type": "in vivo, Setaria viridis", "details": "rated 4-5 weeks after treatment", "summary_of_the_method": "as §2"}, "ORYSAT (Rice, Tebonnet)": {"test_system": "ORYSAT (Rice, Tebonnet)", "test": "Preemergence herbicidal evaluation", "assay_type": "in vivo, Oryza sativa, (L.) Tebonnet", "details": "rated 4-5 weeks after treatment", "summary_of_the_method": "as §2"}, "[5]": {"test_system": "ECHORC (Watergrass (Calif.))", "test": "Preemergence weed control under flooded paddy conditions", "assay_type": "in vivo, Echinochloa oryzoides", "details": "rated 3-4 weeks after treatment", "summary_of_the_method": "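Ratings on a 0-9 visual scale cover stand, vigor, malformation, size, chlorosis and overall appearance relative to a control, taken three to four weeks post-treatment. Application was into flood water over freshly sown silt loam at roughly 0.0313 to 0.500 kg/ha.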"}, "CYPSE (Flatsedge)": {"test_system": "CYPSE (Flatsedge)", "test": "Preemergence weed control under flooded paddy conditions", "assay_type": "in vivo, Cyperus serotinus", "details": "rated 3-4 weeks after treatment", "summary_of_the_method": "(§3)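 Flooded-pot preemergence screen with silt loam and seeds in the upper 0.5 cm. Dose about 0.0313 to 0.500 kg/ha, delivered into flood water; visual 0-9 score after 3 to 4 weeks.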"}, "[6]": {"test_system": "SAGPY (Arrowhead (Pygmaea))", "test": "Preemergence weed control under flooded paddy conditions", "assay_type": "in vivo, Sagittaria pygmaea", "details": "rated 3-4 weeks after treatment", "summary_of_the_method": "as §3"}, "[7]": {"test_system": "ECHORC (Watergrass (Calif.))", "test": "Postemergence weed control under flooded paddy conditions", "assay_type": "in vivo, Echinochloa oryzoides", "details": "postemergence weeds, rated 3 to 4 weeks after treatment", "summary_of_the_method": "(§4)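 Injury ratings (0–9 scale covering stand, vigor, malformation, size, chlorosis and overall appearance versus control) were made three to four weeks after treatment. Test material, about 0.0313 to 0.500 kg/ha a.i. in 50/50 v/v aqueous/acetone, was added to flood water 1.5 to 3 cm deep over 3 to 5 cm weeds and 1.5 to 2.5 leaf rice.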"}, "[8]": {"test_system": "SAGPY (Arrowhead (Pygmaea))", "test": "Postemergence weed control under flooded paddy conditions", "assay_type": "in vivo, Sagittaria pygmaea", "details": "postemergence weeds, rated 3 to 4 weeks after treatment", "summary_of_the_method": "as §4"}}}
{"smiles": "COC(=O)[C@H](Cc1ccc([N+](=O)[O-])cc1)N1C(=O)CSC1=Nc1cc(-n2c(=O)cc(C(F)(F)F)n(C)c2=O)c(F)cc1Cl", "note": "[Compound 78, Methyl 2-{{2-chloro-5-[3,6-dihydro-3-methyl-2,6-dioxo-4-(trifluoromethyl)-1(2H)-pyrimidinyl]-4-fluorophenyl}imino}-4-oxo-α-(p-nitrobenzyl)-3-thiazolidineacetate, L-]", "values": [{"measurement": "AMBEL herbicidal rating", "setting": "AMBEL (Ragweed, Common); rate 0.0158 kg/ha", "result": 7.0}, {"measurement": "AMBEL herbicidal rating", "setting": "AMBEL (Ragweed, Common); rate 0.0315 kg/ha", "result": 7.0}, {"measurement": "AMBEL herbicidal rating", "setting": "AMBEL (Ragweed, Common); rate 0.0630 kg/ha", "result": 9.0}, {"measurement": "CASOB herbicidal rating", "setting": "CASOB (Sicklepod); rate 0.0158 kg/ha", "result": 1.0}, {"measurement": "CASOB herbicidal rating", "setting": "CASOB (Sicklepod); rate 0.0315 kg/ha", "result": 1.0}, {"measurement": "CASOB herbicidal rating", "setting": "CASOB (Sicklepod); rate 0.0630 kg/ha", "result": 3.0}, {"measurement": "GALAP herbicidal rating", "setting": "GALAP (Galium) [1]; rate 0.0158 kg/ha", "result": 1.0}, {"measurement": "GALAP herbicidal rating", "setting": "GALAP (Galium) [1]; rate 0.0315 kg/ha", "result": 1.0}, {"measurement": "GALAP herbicidal rating", "setting": "GALAP (Galium) [1]; rate 0.0630 kg/ha", "result": 2.0}, {"measurement": "GLXMAW herbicidal rating", "setting": "[2]; rate 0.0158 kg/ha", "result": 4.0}, {"measurement": "GLXMAW herbicidal rating", "setting": "[2]; rate 0.0315 kg/ha", "result": 4.5}, {"measurement": "GLXMAW herbicidal rating", "setting": "[2]; rate 0.0630 kg/ha", "result": 5.5}, {"measurement": "TRZAWR herbicidal rating", "setting": "[3]; rate 0.0158 kg/ha", "result": 3.0}, {"measurement": "TRZAWR herbicidal rating", "setting": "[3]; rate 0.0315 kg/ha", "result": 3.5}, {"measurement": "TRZAWR herbicidal rating", "setting": "[3]; rate 0.0630 kg/ha", "result": 3.5}, {"measurement": "Preemergence herbicidal rating GALAP", "setting": "GALAP (Galium) [4]; rate 0.0156 kg/ha", "result": 0.0}, {"measurement": "Preemergence herbicidal rating GALAP", "setting": "GALAP (Galium) [4]; rate 0.0313 kg/ha", "result": 0.0}, {"measurement": "Preemergence herbicidal rating GALAP", "setting": "GALAP (Galium) [4]; rate 0.0625 kg/ha", "result": 0.0}, {"measurement": "Preemergence herbicidal rating GALAP", "setting": "GALAP (Galium) [4]; rate 0.1250 kg/ha", "result": 3.0}, {"measurement": "Preemergence herbicidal rating GALAP", "setting": "GALAP (Galium) [4]; rate 0.2500 kg/ha", "result": 2.0}, {"measurement": "Preemergence herbicidal rating SETVI", "setting": "SETVI (Foxtail, Green); rate 0.0156 kg/ha", "result": 0.0}, {"measurement": "Preemergence herbicidal rating SETVI", "setting": "SETVI (Foxtail, Green); rate 0.0313 kg/ha", "result": 0.0}, {"measurement": "Preemergence herbicidal rating SETVI", "setting": "SETVI (Foxtail, Green); rate 0.0625 kg/ha", "result": 0.0}, {"measurement": "Preemergence herbicidal rating SETVI", "setting": "SETVI (Foxtail, Green); rate 0.1250 kg/ha", "result": 0.0}, {"measurement": "Preemergence herbicidal rating SETVI", "setting": "SETVI (Foxtail, Green); rate 0.2500 kg/ha", "result": 6.0}, {"measurement": "Preemergence herbicidal rating ORYSAT", "setting": "ORYSAT (Rice, Tebonnet); rate 0.0156 kg/ha", "result": 0.0}, {"measurement": "Preemergence herbicidal rating ORYSAT", "setting": "ORYSAT (Rice, Tebonnet); rate 0.0313 kg/ha", "result": 0.0}, {"measurement": "Preemergence herbicidal rating ORYSAT", "setting": "ORYSAT (Rice, Tebonnet); rate 0.0625 kg/ha", "result": 0.0}, {"measurement": "Preemergence herbicidal rating ORYSAT", "setting": "ORYSAT (Rice, Tebonnet); rate 0.1250 kg/ha", "result": 0.0}, {"measurement": "Preemergence herbicidal rating ORYSAT", "setting": "ORYSAT (Rice, Tebonnet); rate 0.2500 kg/ha", "result": 0.0}, {"measurement": "ECHORC herbicidal effect rating", "setting": "[5]; 0.0313 kg/ha", "result": 7.0}, {"measurement": "ECHORC herbicidal effect rating", "setting": "[5]; 0.0625 kg/ha", "result": 7.0}, {"measurement": "ECHORC herbicidal effect rating", "setting": "[5]; 0.1250 kg/ha", "result": 9.0}, {"measurement": "ECHORC herbicidal effect rating", "setting": "[5]; 0.2500 kg/ha", "result": 9.0}, {"measurement": "CYPSE herbicidal effect rating", "setting": "CYPSE (Flatsedge); 0.0313 kg/ha", "result": 6.0}, {"measurement": "CYPSE herbicidal effect rating", "setting": "CYPSE (Flatsedge); 0.0625 kg/ha", "result": 6.0}, {"measurement": "CYPSE herbicidal effect rating", "setting": "CYPSE (Flatsedge); 0.1250 kg/ha", "result": 7.0}, {"measurement": "CYPSE herbicidal effect rating", "setting": "CYPSE (Flatsedge); 0.2500 kg/ha", "result": 9.0}, {"measurement": "SAGPY herbicidal effect rating", "setting": "[6]; 0.0313 kg/ha", "result": 0.0}, {"measurement": "SAGPY herbicidal effect rating", "setting": "[6]; 0.0625 kg/ha", "result": 0.0}, {"measurement": "SAGPY herbicidal effect rating", "setting": "[6]; 0.1250 kg/ha", "result": 2.0}, {"measurement": "SAGPY herbicidal effect rating", "setting": "[6]; 0.2500 kg/ha", "result": 4.0}, {"measurement": "Herbicidal rating ECHORC", "setting": "[7]; Rate 0.0313 kg/ha", "result": 7.0}, {"measurement": "Herbicidal rating ECHORC", "setting": "[7]; Rate 0.0625 kg/ha", "result": 7.0}, {"measurement": "Herbicidal rating ECHORC", "setting": "[7]; Rate 0.1250 kg/ha", "result": 9.0}, {"measurement": "Herbicidal rating ECHORC", "setting": "[7]; Rate 0.2500 kg/ha", "result": 9.0}, {"measurement": "Herbicidal rating SAGPY", "setting": "[8]; Rate 0.0313 kg/ha", "result": 0.0}, {"measurement": "Herbicidal rating SAGPY", "setting": "[8]; Rate 0.0625 kg/ha", "result": 0.0}, {"measurement": "Herbicidal rating SAGPY", "setting": "[8]; Rate 0.1250 kg/ha", "result": 2.0}, {"measurement": "Herbicidal rating SAGPY", "setting": "[8]; Rate 0.2500 kg/ha", "result": 4.0}]}
